Article PMC3674748, “High-level expression and characterization of a chimeric lipase from Rhizopus oryzae for biodiesel production” (Biotechnology for Biofuels, 2013)

Experiments:
mROL = target: T1, mROL (Rhizopus arrhizus, UniProt P61872); test: residual activity after heat treatment, pNPP assay; format: biochemical; settings: turnover only; 1 h pre-incubation at 40 °C
T1 sequence (P61872 124-392): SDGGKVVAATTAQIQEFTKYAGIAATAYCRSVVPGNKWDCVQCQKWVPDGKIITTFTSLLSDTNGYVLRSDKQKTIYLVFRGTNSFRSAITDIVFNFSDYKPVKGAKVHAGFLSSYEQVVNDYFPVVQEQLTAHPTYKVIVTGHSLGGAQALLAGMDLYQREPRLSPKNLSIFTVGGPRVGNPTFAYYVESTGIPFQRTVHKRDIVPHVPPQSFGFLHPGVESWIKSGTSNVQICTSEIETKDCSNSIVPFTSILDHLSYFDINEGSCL

r28ROL = target: T2, r28ROL (Rhizopus arrhizus, UniProt P61872); test: interfacial kinetics, p-nitrophenol release from emulsified pNPP; format: biochemical; settings: heterogeneous (emulsion) medium; free purified enzyme; value not given
T2 construct: Pichia pastoris GS115, secreted, purified; proROL without signal peptide cleaved Kex2-like; about 37 kDa on SDS-PAGE
T2 sequence (P61872 96-392): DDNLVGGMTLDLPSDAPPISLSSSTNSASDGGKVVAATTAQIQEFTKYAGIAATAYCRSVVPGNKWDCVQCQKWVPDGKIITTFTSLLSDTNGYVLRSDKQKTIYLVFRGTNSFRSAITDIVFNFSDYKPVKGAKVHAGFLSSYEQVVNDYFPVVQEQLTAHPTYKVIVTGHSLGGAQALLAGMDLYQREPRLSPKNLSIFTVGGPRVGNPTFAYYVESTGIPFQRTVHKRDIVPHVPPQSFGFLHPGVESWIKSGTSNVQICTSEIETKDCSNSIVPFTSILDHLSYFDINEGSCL

SMILES: CCCCCCCCCCCCCCCC(=O)Oc1ccc([N+](=O)[O-])cc1 [p-nitrophenyl palmitate]
- residual activity after heat treatment, pNPP assay (mROL): thermostability of the mature R. oryzae lipase by P. pastoris in this study
- Km* (r28ROL): The kinetic parameters were determined using p-nitrophenyl palmitate (pNPP) as substrate.
